In BindingDB's records for doi:10.1073/pnas.90.8.3452 (The Scripps Research Institute, 1993) one finds Ki data, which are given here for 12 compounds.

The target in test [1] is 5-hydroxytryptamine receptor 5A (Rattus norvegicus, UniProt P35364).
In test [2] the target is 5-hydroxytryptamine receptor 5B (Rattus norvegicus, UniProt P35365).
Sequence of 5-hydroxytryptamine receptor 5B (P35365 whole entry): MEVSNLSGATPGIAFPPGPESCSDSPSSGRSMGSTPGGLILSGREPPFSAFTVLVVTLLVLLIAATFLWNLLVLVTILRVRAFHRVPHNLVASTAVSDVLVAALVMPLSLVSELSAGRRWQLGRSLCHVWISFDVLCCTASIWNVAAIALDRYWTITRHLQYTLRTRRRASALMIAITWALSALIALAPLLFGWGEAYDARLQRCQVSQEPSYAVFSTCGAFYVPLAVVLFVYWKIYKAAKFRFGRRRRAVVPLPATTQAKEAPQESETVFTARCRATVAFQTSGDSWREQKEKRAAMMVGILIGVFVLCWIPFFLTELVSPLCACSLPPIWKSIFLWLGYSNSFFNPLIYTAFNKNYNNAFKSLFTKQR

Sequence of 5-hydroxytryptamine receptor 5A (P35364 whole entry): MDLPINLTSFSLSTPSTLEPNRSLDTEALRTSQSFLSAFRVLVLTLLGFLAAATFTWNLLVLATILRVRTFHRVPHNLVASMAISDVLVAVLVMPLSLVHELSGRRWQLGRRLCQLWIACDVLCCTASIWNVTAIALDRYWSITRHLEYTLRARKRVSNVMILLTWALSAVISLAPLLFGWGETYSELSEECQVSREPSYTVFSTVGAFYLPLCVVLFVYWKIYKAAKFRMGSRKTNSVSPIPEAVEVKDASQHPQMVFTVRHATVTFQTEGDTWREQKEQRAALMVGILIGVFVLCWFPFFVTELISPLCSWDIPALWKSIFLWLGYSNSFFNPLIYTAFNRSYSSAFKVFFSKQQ

For orientation: Ki means a measure of affinity in units of concentration, obtained from inhibition or displacement. Read a low Ki as tighter binding. Regarding `CCCN(CCC)C1CCc2cccc(O)c2C1` (stereo unspecified), the Ki in test [1] and in test [2] was 1000 nM throughout.
Turning to `CC[C@@H](CO)NC(=O)[C@@H]1C=C2c3cccc4c3c(cn4C)C[C@H]2N(C)C1`, the figures for the Ki in test [1] and in test [2] were 1000 nM and 196 nM, respectively.
For `NCCc1ccc(O)c(O)c1`, the Ki in test [1] and in test [2] was 1000 nM each time.
As for `COc1ccc2[nH]cc(CCNC(C)=O)c2c1`, the Ki in test [1] and in test [2] was 1000 nM throughout.
With `CN1C[C@@H](NS(=O)(=O)N(C)C)C[C@@H]2c3cccc4c3c(cn4C)C[C@H]21` [MESULERGINE], the Ki in test [1] and in test [2] was 1000 nM each time.
For the compound `CN1C[C@H](CNC(=O)OCc2ccccc2)C[C@@H]2c3cccc4c3c(cn4C)C[C@H]21` [METERGOLINE], the Ki in test [1] and in test [2] was 1000 nM throughout.
As to `NCC(O)c1ccc(O)c(O)c1` (stereo not drawn) [Noradrenaline,(+)], the Ki in test [1] and in test [2] was 1000 nM each time.
On to `COc1cc(N)c(Cl)cc1C(=O)NC1CN2CCC1CC2` (stereo unspecified) [ZACOPRIDE,R], for which the Ki in test [1] and in test [2] was 1000 nM each time.
In test [1], `NCCc1c[nH]c2ccc(O)cc12` [[3H]-5-HT] came in with a Ki of 1330 nM.
On to `NCCc1c[nH]c2ccc(C(N)=O)cc12` [[3H]-5-carboxamidotryptamine], for which the Ki in test [2] came out at 12.6 nM.
Consider `COc1cc(CC(C)N)c(OC)cc1I` (stereo unspecified) [[125I]2,5-dimethoxy-4-iodoamphetamine], for which the Ki in test [1] and in test [2] was 1000 nM throughout.
As for `CSc1ccc2c(c1)C(N1CCN(C)CC1)Cc1ccccc1S2` (stereo unspecified) [methanesulfonic acid;1-methyl-4-(3-methylsulfanyl-5,6-dihydrobenzo[b][1]benzothiepin-5-yl)piperazine], the Ki in test [1] was 146 nM.
